Assay results as given in paper PMC6042793 (PLoS ONE, 2018).

Experiments:
[1] = target: sialidase activity of A/Puerto Rico/8/1934 (H1N1) (Influenza A virus, UniProt P03468); format: biochemical; settings: pH 6.5
[2] = test system: sialidase activity of A/Memphis/1/1971 (H3N2); format: biochemical, influenza A virus (H3N2); settings: pH 6.5
[3] = test system: sialidase activity of A/Shizuoka/17/2016 (H1N1pdm); format: biochemical, influenza A virus (H1N1pdm); settings: pH 6.5
[4] = test system: sialidase activity of A/Shizuoka/19/2016 (H1N1pdm); format: biochemical, influenza A virus (H1N1pdm); settings: pH 6.5
[5] = target: sialidase activity of B/Lee/1940 (Influenza B virus, UniProt P03474); format: biochemical; settings: pH 6.5
Sequence of sialidase activity of B/Lee/1940 (P03474 whole entry): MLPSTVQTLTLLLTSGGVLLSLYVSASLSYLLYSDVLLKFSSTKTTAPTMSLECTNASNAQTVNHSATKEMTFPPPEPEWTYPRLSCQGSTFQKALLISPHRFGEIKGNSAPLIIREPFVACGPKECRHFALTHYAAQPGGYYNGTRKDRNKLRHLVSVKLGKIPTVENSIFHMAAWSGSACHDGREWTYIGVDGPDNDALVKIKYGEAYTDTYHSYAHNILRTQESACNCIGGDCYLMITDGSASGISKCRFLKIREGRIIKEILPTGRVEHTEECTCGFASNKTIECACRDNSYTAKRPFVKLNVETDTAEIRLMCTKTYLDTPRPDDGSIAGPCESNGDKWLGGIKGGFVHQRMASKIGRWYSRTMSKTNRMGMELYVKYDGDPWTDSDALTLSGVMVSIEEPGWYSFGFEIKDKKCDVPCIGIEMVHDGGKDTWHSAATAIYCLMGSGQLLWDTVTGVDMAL

[6] = target: MuV sialidase activity (Mumps virus genotype B, UniProt P11235); format: biochemical
Sequence of MuV sialidase activity (P11235 whole entry): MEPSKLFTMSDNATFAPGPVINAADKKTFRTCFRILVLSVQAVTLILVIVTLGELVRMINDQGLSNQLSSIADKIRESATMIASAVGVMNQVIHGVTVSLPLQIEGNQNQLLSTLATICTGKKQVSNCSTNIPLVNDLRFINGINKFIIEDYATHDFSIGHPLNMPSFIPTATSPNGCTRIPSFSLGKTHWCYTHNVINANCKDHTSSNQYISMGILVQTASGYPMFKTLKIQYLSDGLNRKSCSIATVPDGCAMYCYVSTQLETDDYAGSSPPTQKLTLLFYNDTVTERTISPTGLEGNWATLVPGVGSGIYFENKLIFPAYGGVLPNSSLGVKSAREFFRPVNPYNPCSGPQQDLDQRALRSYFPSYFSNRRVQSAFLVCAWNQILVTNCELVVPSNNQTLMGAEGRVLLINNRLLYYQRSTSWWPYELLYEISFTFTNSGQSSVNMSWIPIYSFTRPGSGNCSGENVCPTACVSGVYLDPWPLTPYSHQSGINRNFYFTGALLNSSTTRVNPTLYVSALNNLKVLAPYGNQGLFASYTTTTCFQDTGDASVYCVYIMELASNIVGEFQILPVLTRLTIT

[7] = target: S. pneumoniae sialidase activity (Streptococcus pneumoniae, UniProt P62575); format: biochemical; parameters: key to Test result in the BTP3-based filter method in the presence of NAI: -, not detected; settings: for NAI susceptibility in the BTP3-based filter method (fluorescence in the presence of NAI): pH 6.5, 56°C 15 min
Sequence of S. pneumoniae sialidase activity (P62575 54-1035): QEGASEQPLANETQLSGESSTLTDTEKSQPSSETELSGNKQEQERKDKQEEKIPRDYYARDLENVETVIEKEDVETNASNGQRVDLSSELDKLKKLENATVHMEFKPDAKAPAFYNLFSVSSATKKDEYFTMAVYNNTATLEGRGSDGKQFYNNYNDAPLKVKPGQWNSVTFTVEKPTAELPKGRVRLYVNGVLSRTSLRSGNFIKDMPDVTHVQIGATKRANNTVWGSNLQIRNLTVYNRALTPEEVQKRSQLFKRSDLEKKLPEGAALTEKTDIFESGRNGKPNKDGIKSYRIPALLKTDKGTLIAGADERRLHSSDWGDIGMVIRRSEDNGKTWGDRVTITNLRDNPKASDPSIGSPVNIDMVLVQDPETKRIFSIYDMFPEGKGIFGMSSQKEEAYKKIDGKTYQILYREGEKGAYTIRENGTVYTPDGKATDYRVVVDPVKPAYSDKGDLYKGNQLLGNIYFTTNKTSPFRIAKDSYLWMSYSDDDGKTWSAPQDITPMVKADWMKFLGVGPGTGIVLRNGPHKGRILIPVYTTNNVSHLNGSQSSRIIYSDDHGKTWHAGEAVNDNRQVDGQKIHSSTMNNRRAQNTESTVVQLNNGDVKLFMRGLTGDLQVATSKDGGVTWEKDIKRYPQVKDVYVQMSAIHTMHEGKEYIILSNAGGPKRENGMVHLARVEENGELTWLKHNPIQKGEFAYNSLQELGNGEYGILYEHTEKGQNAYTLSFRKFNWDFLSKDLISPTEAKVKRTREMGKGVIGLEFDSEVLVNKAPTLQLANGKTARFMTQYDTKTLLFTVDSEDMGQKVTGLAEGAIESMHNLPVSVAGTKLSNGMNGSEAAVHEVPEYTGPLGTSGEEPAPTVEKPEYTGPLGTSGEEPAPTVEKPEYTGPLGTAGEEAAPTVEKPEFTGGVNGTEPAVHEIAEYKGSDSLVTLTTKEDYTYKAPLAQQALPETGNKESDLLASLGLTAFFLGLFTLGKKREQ

Sequence of sialidase activity of A/Puerto Rico/8/1934 (H1N1) (P03468 whole entry, looked up): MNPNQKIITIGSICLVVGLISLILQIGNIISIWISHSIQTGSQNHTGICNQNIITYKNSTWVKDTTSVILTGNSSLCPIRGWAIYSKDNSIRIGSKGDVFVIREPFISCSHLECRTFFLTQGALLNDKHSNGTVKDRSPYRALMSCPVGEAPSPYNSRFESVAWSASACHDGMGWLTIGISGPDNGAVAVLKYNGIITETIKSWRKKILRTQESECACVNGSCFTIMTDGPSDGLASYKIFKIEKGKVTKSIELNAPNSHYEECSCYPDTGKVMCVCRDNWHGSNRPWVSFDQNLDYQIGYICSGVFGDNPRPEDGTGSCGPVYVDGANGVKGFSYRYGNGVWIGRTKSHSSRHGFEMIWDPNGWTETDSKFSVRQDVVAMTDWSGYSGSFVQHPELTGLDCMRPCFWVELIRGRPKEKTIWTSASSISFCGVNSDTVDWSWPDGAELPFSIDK

Structure (SMILES)	BTP3 fluorescence on the membrane in the presence of NAI [1]	BTP3 fluorescence on the membrane in the presence of NAI [2]	BTP3 fluorescence on the membrane in the presence of NAI [3]	BTP3 fluorescence on the membrane in the presence of NAI [4]	BTP3 fluorescence on the membrane in the presence of NAI [5]	Test result in the BTP3-based filter method in the presence of NAI [6]	Test result in the BTP3-based filter method in the presence of NAI [7]	NAI susceptibility in the BTP3-based filter method (fluorescence in the presence of NAI) [7]
[H]/N=C(\N)N[C@H]1C=C(C(=O)O)O[C@@H]([C@H](OC)[C@H](O)CO)[C@@H]1NC(C)=O [LV, laninamivir]	not observed	not observed	not observed	not observed	not observed	Positive	Positive	showed fluorescence
CCOC(=O)C1=C[C@@H](OC(CC)CC)[C@H](NC(C)=O)[C@@H](N)C1 [OV, oseltamivir]	not observed	not observed	not observed	not observed	not observed	Positive	-	susceptible
CCC(CC)[C@H](NC(C)=O)[C@@H]1[C@H](O)[C@@H](C(=O)O)C[C@H]1N=C(N)N [PV, peramivir]	not observed	not observed	not observed	not observed	not observed	Positive	Positive	showed fluorescence
CC(=O)N[C@H]1[C@H]([C@H](O)[C@H](O)CO)OC(C(=O)O)=C[C@@H]1N=C(N)N [ZV, zanamivir]		not observed	not observed	not observed		Positive	Positive	showed fluorescence
